From patent publication US20250345343A1, “PHARMACEUTICAL COMPOSITION FOR PREVENTION OR TREATMENT OF SOLID CANCER COMPRISING EPIDITHIODIOXOPIPERAZINE DERIVATIVE OR PHARMACEUTICALLY ACCEPTABLE SALT THEREOF” (priority 2019, published 2025)

Key:
[1] = test system: various cancer cell lines and three normal cells (MCF-10A, IMR90, and CCD-841); experiment: Cell viability assay (Cell Titer-Glo), cancer cells versus normal cells; type: cell-based; details: 50 nM and 200 nM
Text: FIG. 5 is diagrams illustrating the cytotoxic effect of a synthetic epidithiodioxopiperazine derivative on various cancer cells and normal cells. (A) to (J) respectively illustrate the cell viability quantified by the Cell Titer-Glo assay system of breast cancer cells, lung cancer cells, stomach cancer cells, skin cancer cells, colon cancer cells, prostate cancer cells, pancreatic cancer cells, normal breast cells, normal fibroblasts, and normal epithelial cells after treating with the labelled ETP compound for 24 hours (n=3). And IC50 values are determined using a linear regression program (GraphPad Prism) and illustrated in (K).
In order to determine the IC50 value for examining cytotoxicity, the cells (2×10^5 cells/well) were aliquoted into 96-well plates and treated with the labelled compounds at various concentrations for 24 hours. The cell viability was measured using the Cell Titer-Glo Luminescence Assay Reagent Kit (Promega, G7570), and the luminescence was read using an Envision plate reader. The percentage of cell growth with respect to that in the vehicle control group (0.1% DMSO-treated cells) was calculated.

[2] = test system: MDA-MB-231, Hs-578T, A549, H460, MKN28, MKN74, SK-MEL-5, SK-MEL-28, RKO, HCT116, PC3 and Panc-1 cancer cells; experiment: Colony formation assay; type: cell-based; details: for colony formation inhibition: low concentrations (50 nM and 200 nM), 10 days
Experimental: The cells (2×10^3 cells/well) were cultured in 6-well plates for 24 hours, and then treated with the compounds of the present invention for 2 hours. The cells were placed in fresh complete media and additionally cultured for 10 days. The cells were washed with PBS and stained with crystal violet. Blue-stained colonies were manually counted.
Among the cancer cells prepared according to Experimental Example 1, breast cancer cell lines MDA-MB-231 and Hs-578T; lung cancer cell lines A549 and H460; stomach cancer cell lines MKN28 and MKN74; skin cancer cell lines SK-MEL-5 and SK-MEL-28; colon cancer cell lines RKO and HCT116; a prostate cancer cell line PC3; and a pancreatic cancer cell line Panc-1 were treated with DMSO as a control vehicle and synthetic epidithiodioxopiperazine derivatives A2, A5, and A10.

[3] = test system: patient-derived lung adenocarcinoma tumor; experiment: Patient-derived tumor xenograft experiment; type: in vivo, mice
Experimental: Animal experiments were approved by the Institutional Animal Care and Use Committee (IACUC) of Seoul National University College of Medicine and complied with ARRIVE (Animal Research: Reporting of In Vivo Experiments) guidelines. Patient-derived lung tumors were subcutaneously implanted into the backs of 4-week-old and 17-week-old NSG (NOD-scid-IL2Rgnull) and humanized NSG (HuNSG) mice, respectively. The compound represented by Chemical Formula 7 (A5, 300 mg/kg) and/or pembrolizumab (humanized anti-PD-1 antibody, 5 mg/kg) dissolved in PBS were intraperitoneally injected to the mice every 3 days for 3 weeks and every 5 days for 3 weeks, respectively. The tumors were allowed to grow for 28 days, excised, and quantified. The tumor volume was measured every 3 days using Vernier calipers and calculated using the following equation.
In the equation, a and b mean the superficial diameter of major axis and the superficial diameter of minor axis, respectively.
While the mouse models prepared by implanting a patient-derived lung adenocarcinoma tumor according to Experimental Example 10 were not treated, were treated only with a representative synthetic epidithiodioxopiperazine derivative A5, or were concurrently treated with A5 and pembrolizumab, a humanized antibody known to be used for cancer immunotherapy, the changes in volume of the tumor were periodically observed, and the results are illustrated in FIG. 15.

[4] = Cell proliferation assay (WST-1): cytotoxicity and proliferation of breast cancer cells; type: cell-based; details: human; up to a concentration of about 200 nM; breast cancer cells MDA-MB-231 and Hs-578T
Experimental: (§1) The cells (2×10^3 cells/well) were cultured in 96-well plates for 24 hours, and then treated with the compound of the present invention for 2 hours. The cells were placed in fresh complete media and cultured for the labelled time. For cell proliferation, the cells were treated with WST-1 reagent for 1 hour, and the absorbance of the formazan product at 450 nm was measured using a UV/VIS ELISA reader.
(§2) Among the cancer cells prepared according to Experimental Example 1, breast cancer cell lines MDA-MB-231 and Hs-578T were treated with DMSO as a control vehicle and a natural epidithiodioxopiperazine derivative gliotoxin, the cytotoxicity and proliferation rate at each concentration of the treated compound were calculated according to Experimental Example 2, and the results are illustrated in FIG. 1.

[5] = test system: breast cancer cell lines MDA-MB-231 and Hs-578T; experiment: as above; type: cell-based; details: breast cancer cells
Experimental: as §1, §2

[6] = test system: breast cancer cell lines MDA-MB-231 and Hs-578T; experiment: Cell cycle assay (PI staining, flow cytometry); type: cell-based; details: treated 2 hours, cultured 24 hours
Experimental: The cells (2×10^5 cells/well) were cultured in 6-well plates for 24 hours, and then treated with the compounds of the present invention for 2 hours. The cells were placed in fresh complete media and further cultured for 24 hours. The cells were fixed overnight in 70% ethanol at 4° C., washed with cold PBS, and re-suspended in PBS solution containing RNase A (10 μg/mL) at 37° C. for 30 minutes. The suspended cells were stained with propidium iodide (PI, 50 μg/mL, Invitrogen) for 5 minutes, and flow cytometry (FACS Calibur, BD) was performed. The cell population was analyzed using ModiFit LT software.
Among the cancer cells prepared according to Experimental Example 1, breast cancer cell lines MDA-MB-231 and Hs-578T were not treated or were treated with a natural epidithiodioxopiperazine derivative gliotoxin, the cell cycle was analyzed and the cell percentage in G1 phase was calculated according to Experimental Example 4, and the results are illustrated in FIG. 2.

[7] = test system: breast cancer cell lines MDA-MB-231 and Hs-578T; experiment: Migration assay (trans-well); type: cell-based; details: 24 hours
Experimental: The cells (2×10^5 cells/well) were cultured in 6-well plates for 24 hours, and then treated with the compounds of the present invention for 2 hours. After treatment, the cells were serum-starved by further culturing in fresh culture medium containing 0.5% FBS for 12 hours. The serum-starved cells (5×10^4 cells/well) were transferred to the upper chamber (8 μm pore size) of a 24-well trans-well culture plate (Costar) with the bottom layer pre-coated with 0.1% gelatin B (Sigma Aldrich). The lower chamber was filled with culture medium containing 20% FBS. Twenty-four hours after plating, non-migrated cells in the upper chamber were removed. After the cells which had not migrated from the upper chamber were removed, the upper chamber was fixed with methanol and stained with 0.6% hematoxylin (DAKO). The stained cells were photographed and counted. The number of migratory cells was determined by averaging the values from three wells.
Among the cancer cells prepared according to Experimental Example 1, breast cancer cell lines MDA-MB-231 and Hs-578T were treated with DMSO as a control vehicle and natural epidithiodioxopiperazine derivative gliotoxin, cell migration to the FBS-containing medium was observed and the number of migrated cells was counted according to Experimental Example 5, and the results are illustrated in FIGS. 3 and 4.

SMILES	non-specific cytotoxicity [1]	colony formation inhibitory effect ([2]; 50 nM)	colony formation inhibitory effect ([2]; 200 nM)	colony formation inhibition [2]	migration of breast cancer cells induced to the serum-containing medium [7]	also measured
CN1C(=O)C2SSC1C(=O)N2C [A2, 5,7-dimethyl-2,3-dithia-5,7-diazabicyclo[2.2.2] octane-6,8-dione]	do not exhibit non-specific cytotoxicity	equal to or somewhat superior to that in the control vehicle-treated group	remarkably so as to be observed with the naked eye in all tested cells	efficiently inhibit colony formation	–	–
C=CCN1C(=O)C2SSC1C(=O)N2CC=C [A5, 5,7-diallyl-2,3-dithia-5,7-diazabicyclo[2.2.2] octane-6,8-dione]	do not exhibit non-specific cytotoxicity	equal to or somewhat superior to that in the control vehicle-treated group	remarkably so as to be observed with the naked eye in all tested cells	efficiently inhibit colony formation	–	tumor volume over time ([3]; NSG mice, A5 300 mg/kg intraperitoneally every 3 days for 3 weeks): increase in tumor volume is suppressed; tumor size compared to untreated control group ([3]; humanized NSG mice (HuNSG), A5 300 mg/kg intraperitoneally every 3 days for 3 weeks): an effect of decreasing the tumor size is exerted; inhibiting tumor growth and decreasing tumor size, A5 alone versus pembrolizumab or A5 plus pembrolizumab ([3]; humanized NSG mice (HuNSG), pembrolizumab 5 mg/kg every 5 days for 3 weeks): superior to the pembrolizumab-treated group or the experimental group concurrently treated with A5 and pembrolizumab
CN1C(=O)C23CC4=CC=CC(O)C4N2C(=O)C1(CO)SS3 (stereo not drawn) [gliotoxin]	–	–	–	–	significantly decreased	viability [4]: ≥ 80%; proliferation rate compared to DMSO-treated cells ([5]; gliotoxin 100 nM): significantly decreased; increase of cell percentage in G1 phase compared to untreated group [6]: ≥ 10%
CN1C(=O)C2(Cc3cn(C45CC67SSC(CO)(C(=O)N6C4Nc4ccccc45)N(C)C7=O)c4ccccc34)SSC1(CO)C(=O)N2C (stereo not drawn) [chetomin]	–	–	–	–	significantly decreased	viability at 2 h [4]: ≥ 80%; proliferation rate compared to DMSO-treated cells ([5]; chetomin 50 nM): significantly decreased
O=C1N2CCCC23SSC12CCCN2C3=O [A10, 5a, 10a-dithio-octahydrodipyrrolo[1,2-a:1′,2′-d]pyrazine-5,10-dione]	do not exhibit non-specific cytotoxicity	colony formation was inhibited in most cancer cells	–	efficiently inhibit colony formation	–	–
